# Measured values taken from US20250136572A1, “PARA ACYL SUBSTITUTED DIAZACYCLOHEXENE DERIVATIVES” (Renovel Innovations, Inc., priority 2021, published 2025).
# Legend:
# [1] = Body weight in C57BL/6 mice on high fat diet; assay type: in vivo, male C57BL/6 mice; settings: for decrease in body weight: compared to the high fat diet control group
# [2] = Fasting blood glucose in mice on high fat diet; assay type: in vivo; settings: compared with the control high fat diet group
# [3] = Oral glucose tolerance test in C57BL/6 mice on high fat diet; assay type: in vivo; set-up: concentration or dose not given beside the values; settings: for reduction in blood glucose at the peak oral glucose tolerance test of 30 minutes: compared with the control high fat diet group
# [4] = Blood pressure in rats; assay type: in vivo; settings: compared to the vehicle group
# [5] = Triglycerides in high fructose fed hamsters; assay type: in vivo; settings: compared with the high fructose fed group
# [6] = test system: TNF-α; experiment: TNF-α in LPS-treated mice; assay type: in vivo; settings: from the LPS group
smiles,measurement,setting,value
"CCOC(=O)C1=C(C)NC(=O)NC1c1ccc(OC(=O)/C=C/c2ccccc2)cc1 (stereo not shown) [Compound 1, 6-Methyl-2-oxo-4-[4-(3-phenyl-acryloyloxy)-phenyl]-1,2,3,4-tetrahydro-pyrimidine-5-carboxylic acid ethyl ester]",decrease in percent change in body weight,"[1]; FIG. 1B, compared with the control high fat diet group",15%
same,decrease in fasting blood glucose,[2],26%
same,reduction in blood glucose at the peak oral glucose tolerance test of 30 minutes,[3],23%
same,decrease in diastolic blood pressure,[4],8%
same,decrease in systolic blood pressure,[4],4%
same,decrease in triglycerides,[5],31%
same,decrease of TNF-α,[6],59%
"CCOC(=O)C1=C(C)NC(=O)NC1c1ccc(OC(=O)/C=C/c2ccccc2)c(OC)c1 (stereo not shown) [Compound 2, 4-[3-Methoxy-4-(3-phenyl-acryloyloxy)-phenyl]-6-Methyl-2-oxo-1,2,3,4-tetrahydro-pyrimidine-5-carboxylic acid ethyl ester]",decrease in body weight,"[1]; FIG. 6A, C57BL/6 mice",5%
same,decrease in body weight,"[1]; FIG. 6B, significant (P<0.0001)",15%
same,reduction in blood glucose at the peak oral glucose tolerance test of 30 minutes,[3],8%
"CCOC(=O)C1=C(C)NC(=S)NC1c1ccc(OC(=O)C(C)C)c(OC)c1 (stereo not shown) [Compound 4, 4-(4-Isobutyryloxy-3-methoxy-phenyl)-6-methyl-2-thioxo-1,2,3,4-tetrahydro-pyrimidine-5-carboxylic acid ethyl ester]",reduction in blood glucose at the peak oral glucose tolerance test of 30 minutes,[3],33%
same,reduction in blood glucose at 120 minutes after glucose administration,[3]; 120 minutes after glucose administration,26%
"CCOC(=O)C1=C(C)NC(=O)NC1c1ccc(OC(=O)C(C)C)c(OC)c1 (stereo not shown) [Compound 3, 4-(4-Isobutyryloxy-3-methoxy-phenyl)-6-methyl-2-oxo-1,2,3,4-tetrahydro-pyrimidine-5-carboxylic acid ethyl ester]",reduction in blood glucose at the peak oral glucose tolerance test of 30 minutes,[3],6%
